Results from ChEMBL document CHEMBL1212936, “Discovery of 2-[1-(4-chlorophenyl)cyclopropyl]-3-hydroxy-8-(trifluoromethyl)quinoline-4-carboxylic acid (PSI-421), a P-selectin inhibitor with improved pharmacokinetic properties and oral efficacy in models of vascular injury” (J Med Chem, 2010).
Values after ≈ are worked out from the molar mass of the structure shown. Active and inactive are the calls of the source. The rule behind the calls is not given here.

Tests used:
[1] = molecular target: T1, P-selectin glycoprotein ligand 1 (Homo sapiens) (UniProt Q14242); assay: Binding affinity to recombinant PSGL-1 assessed as saturation transfer difference at 100 uM by NMR analysis
T1 sequence (whole entry): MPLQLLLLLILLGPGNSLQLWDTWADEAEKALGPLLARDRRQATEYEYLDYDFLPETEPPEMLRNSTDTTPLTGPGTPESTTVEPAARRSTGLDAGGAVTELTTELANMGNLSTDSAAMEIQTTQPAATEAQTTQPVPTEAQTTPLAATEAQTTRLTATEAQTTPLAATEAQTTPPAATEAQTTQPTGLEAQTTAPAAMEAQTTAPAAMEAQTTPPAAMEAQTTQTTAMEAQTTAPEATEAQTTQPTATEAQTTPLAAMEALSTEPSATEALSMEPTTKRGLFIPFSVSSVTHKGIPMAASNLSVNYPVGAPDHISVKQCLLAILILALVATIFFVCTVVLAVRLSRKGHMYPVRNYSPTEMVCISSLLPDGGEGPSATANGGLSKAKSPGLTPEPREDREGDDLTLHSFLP

[2] = Half life in Beagle dog liver microsomes; assay type: ADME, Canis lupus familiaris, Microsome
[3] = Physiological stability of the compound in simulated intestinal fluid assessed as compound remaining after 8 hrs in presence of 20% acetonitrile; assay type: physicochemical; details: read-out: Stability
[4] = Physiological stability of the compound at pH 4.5 assessed as compound remaining after 12 hrs in presence of 20% acetonitrile; assay type: physicochemical; details: read-out: Stability
[5] = Physiological stability of the compound at pH 9 assessed as compound remaining after 20 hrs in presence of 20% acetonitrile; assay type: physicochemical; details: read-out: Stability
[6] = Physiological stability of the compound in simulated intestinal fluid assessed as compound remaining after 4 hrs in presence of 20% acetonitrile; assay type: physicochemical; details: read-out: Stability
[7] = Physiological stability of the compound in simulated intestinal bile salts-lecithin mixture fluid assessed as compound remaining after 24 hrs in presence of 20% acetonitrile; assay type: physicochemical; details: read-out: Stability
[8] = Physiological stability of the compound at pH 7.4 assessed as compound remaining after 16 hrs in presence of 20% acetonitrile; assay type: physicochemical; details: read-out: Stability
Rattus norvegicus [9] = assay: Inhibition of Sprague-Dawley rat neointimal hyperplasia carotid balloon injury model at 30 mg/kg, po once daily for 13 days; assay type: functional; details: 312 h
[10] = molecular target: T1, P-selectin glycoprotein ligand 1 (Homo sapiens); assay: Inhibition of recombinant PSGL-1 at 250 uM by surface plasmon resonance assay
[11] = Solubility of the compound in fed simulated intestinal bile salts-lecithin mixture fluid at pH 5.5; assay type: physicochemical
[12] = Clearance in Beagle dog at 2 mg/kg, iv and 10 mg/kg, po; assay type: ADME, organism-based, Canis lupus familiaris; details: in vivo
Plasma [13] = assay: Drug level in Sprague-Dawley rat plasma at 3 mg/kg, po; assay type: ADME, organism-based; set-up: dose 3 mg/kg, route oral; details: in vivo
[14] = Physiological stability of the compound in simulated intestinal bile salts-lecithin mixture fluid assessed as compound remaining after 8 hrs in presence of 20% acetonitrile; assay type: physicochemical; details: read-out: Stability
[15] = Physiological stability of the compound at pH 7.4 assessed as compound remaining after 8 hrs in presence of 20% acetonitrile; assay type: physicochemical; details: read-out: Stability
[16] = Physiological stability of the compound at pH 1 assessed as compound remaining after 20 hrs in presence of 20% acetonitrile; assay type: physicochemical; details: read-out: Stability
[17] = Physiological stability of the compound in simulated intestinal bile salts-lecithin mixture fluid assessed as compound remaining after 12 hrs in presence of 20% acetonitrile; assay type: physicochemical; details: read-out: Stability
[18] = Half life in C57B6 mouse liver microsomes; assay type: ADME, Microsome
[19] = Physiological stability of the compound at pH 9 assessed as compound remaining after 8 hrs in presence of 20% acetonitrile; assay type: physicochemical; details: read-out: Stability
[20] = Physiological stability of the compound at pH 1 assessed as compound remaining after 24 hrs in presence of 20% acetonitrile; assay type: physicochemical; details: read-out: Stability
Plasma [21] = assay: Drug level in Sprague-Dawley rat plasma at 7.5 mg/kg, po; assay type: ADME, organism-based; set-up: dose 7.5 mg/kg, route oral; details: in vivo
Rattus norvegicus [22] = assay: Inhibition of leukocytes rolling flux in acute intravital microscopy Sprague-Dawley rat model at 30 mg/kg, po after 35 mins relative to control; assay type: functional
[23] = Physiological stability of the compound at pH 1 assessed as compound remaining after 8 hrs in presence of 20% acetonitrile; assay type: physicochemical; details: read-out: Stability
[24] = Physiological stability of the compound in simulated intestinal fluid assessed as compound remaining after 24 hrs in presence of 20% acetonitrile; assay type: physicochemical; details: read-out: Stability
[25] = Permeability from basolateral to apical side in human Caco-2 cells; assay type: ADME, cell-based
Papio anubis [26] = assay: Antithrombotic activity in Baboon deep vein thrombosis model assessed as decrease in vein wall inflammation at 1 mg/kg, po; assay type: functional, organism-based; set-up: dose 1 mg/kg
Plasma [27] = assay: Drug level in Sprague-Dawley rat plasma at 15 mg/kg, po; assay type: ADME, organism-based; set-up: dose 15 mg/kg, route oral; details: in vivo
[28] = Physiological stability of the compound at pH 9 assessed as compound remaining after 12 hrs in presence of 20% acetonitrile; assay type: physicochemical; details: read-out: Stability
Rattus norvegicus [29] = assay: Inhibition of leukocytes rolling flux in acute intravital microscopy model of Sprague-Dawley rat cremasteric postcapillary venules at 7.5 mg/kg, po after 35 mins relative to control; assay type: functional
[30] = Solubility of the compound in fasted simulated intestinal bile salts-lecithin mixture fluid at pH 6; assay type: physicochemical
[31] = Physiological stability of the compound at pH 6.6 assessed as compound remaining after 12 hrs in presence of 20% acetonitrile; assay type: physicochemical; details: read-out: Stability
[32] = Oral bioavailability in Beagle dog at 10 mg/kg; assay type: ADME, organism-based, Canis lupus familiaris; details: in vivo
[33] = Aqueous solubility of the compound at pH 6.6; assay type: physicochemical; details: aqueous solution
[34] = Physiological stability of the compound at pH 7.4 assessed as compound remaining after 20 hrs in presence of 20% acetonitrile; assay type: physicochemical; details: read-out: Stability
[35] = Oral bioavailability in cynomolgus monkey at 5 mg/kg; assay type: ADME, organism-based, Macaca fascicularis; details: in vivo
Papio anubis [36] = assay: Toxicity in Baboon deep vein thrombosis model assessed as induction of coagulation at 1 mg/kg, po; assay type: organism-based; set-up: dose 1 mg/kg, route oral; details: in vivo
[37] = Physiological stability of the compound at pH 6.6 assessed as compound remaining after 8 hrs in presence of 20% acetonitrile; assay type: physicochemical; details: read-out: Stability

Work on `O=C(O)c1c(O)c(C2(c3ccc(Cl)cc3)CC2)nc2c(C(F)(F)F)cccc12` yielded an Activity [1] of 9%, a half-life [2] of over 1 h and a remaining at 8 h [3] of 104%. The remaining at 12 h [4] was 99.2%, the remaining at 20 h [5] was 101% and the remaining at 4 h [6] was 101%. The remaining at 24 h [7] was 103%, the remaining at 16 h [8] was 102% and the inhibition in vivo at 30 mg/kg (Rattus norvegicus [9]) was 31%. It also gave an inhibition [10] of 55%, a solubility [11] of 835 µg/mL and a clearance [12] of 0.9 mL/min/kg. For the same molecule, the Cp (Plasma [13]) was 3000 ng/mL, the remaining at 8 h [14] was 101% and the remaining at 8 h [15] was 102%. The remaining at 20 h [16] was 102%, the remaining at 12 h [17] was 101% and the half-life [18] was over 1 h. The remaining at 8 h [19] was 98%, the remaining at 24 h [20] was 101% and the Cp (Plasma [21]) was 6000 ng/mL. For the same molecule, the inhibition in vivo at 30 mg/kg (Rattus norvegicus [22]) was 61%, the remaining at 8 h [23] was 102% and the remaining at 24 h [24] was 95%. The Papp B→A [25] was 9.8 ×10⁻⁶ cm/s, the Activity (Papio anubis [26]) was “Active” and the Cp (Plasma [27]) was 24000 ng/mL. The remaining at 12 h [28] was 98.8%, the inhibition in vivo at 7.5 mg/kg (Rattus norvegicus [29]) was 47% and the solubility [30] was 87 µg/mL. For the same molecule, the remaining at 12 h [31] was 106%, the bioavailability [32] was 100% and the solubility [33] was 920 µg/mL (≈ 2260 µM). The remaining at 20 h [34] was 102%, the bioavailability [35] was 96% and the Activity (Papio anubis [36]) was “Non-toxic”. For the same molecule, the remaining at 8 h [37] was 104%.
